A short description of the data set: Study on solid stability of crystal form P (high temperature, high humidity, light, accelerated conditions; XRPD and HPLC). In kind it is physicochemical. On the procedure:
In order to evaluate the solid stability of the crystal form P, the crystal form P was investigated for influence factors (high temperature, high humidity and light), stability under accelerated conditions and stability under intermediate conditions. The crystal form P was placed at high temperature (60° C., closed), high humidity (room temperature, 92.5% RH, sealing film wrapping and pricking 5-10 small holes) for 5 days and 10 days, then placed under visible light and ultraviolet light (a light-shielding control group was wrapped by tinfoil paper) according to ICH conditions (visible light illumination reached 1.2E+06 Lux hrs, ultraviolet light illumination reached 200 W·hrs/m) in a closed manner, and meanwhile, placed with stability under accelerated conditions ([…]/75% RH, sealing film wrapping and pricking 5-10 small holes) for 10 days and 1-2 months.

Setting [1] is: 92.5% RH, room temperature, Day 5.
The mark [2] stands for this setting: 92.5% RH, room temperature, Day 10.
The mark [3] stands for this setting: Light-shielding control group, taken simultaneously with the visible light + ultraviolet groups.
Setting [4] is: Light-shielding control group, taken simultaneously with the visible light group.
The mark [5] stands for this setting: Visible + ultraviolet (ICH), illumination reaches 200 W · hrs/m^2.
[6] abbreviates: Visible light (ICH), illumination reaches 1.2E+06 Lux · hrs.

Results on one compound are retold here after patent US20230026869A1, “CRYSTAL FORM OF NUCLEOPROTEIN INHIBITOR AND USE THEREOF” (CHIA TAI TIANQING PHARMACEUTICAL GROUP CO., LTD., priority 2019, published 2023).

As to `CC1(NC(=O)C(=O)c2c(Cl)c(C(=O)Nc3cc(F)c(F)c(F)c3)c3n2CCC3)CCC(CC(=O)O)CC1` (centres unmarked) [crystal form P], the Crystal form change result by setting is: (60° C., closed, Day 5) “Unchanged”; (60° C., closed, Day 10) “Unchanged”; (60° C./75% RH, 1 month) “Unchanged”; (60° C./75% RH, Day 10) “Unchanged”; (60° C./75% RH, Month 2) “Unchanged”; under setting [1], “Unchanged”. Moreover, the Crystal form change result by setting is: under setting [2], “Unchanged”; under setting [3], “Unchanged”; under setting [4], “Unchanged”; under setting [5], “Unchanged”; under setting [6], “Unchanged”; (under all stability conditions) “unchanged”. For the same compound, the Relative purity by setting is: (60° C., closed, Day 5) 100.0%; (60° C., closed, Day 10) 100.0%; (60° C./75% RH, 1 month) 100.0%; (60° C./75% RH, Day 10) 100.0%; (60° C./75% RH, Month 2) 100.0%; under setting [1], 100.0%. In addition, the Relative purity runs as follows: under setting [2], 100.0%; under setting [3], 100.0%; under setting [4], 99.9%; under setting [5], 100.0%; under setting [6], 100.0%.
